Measured values taken from patent EP2145538A1 (priority 2008, dated 2010).
In brackets after ≈: the same amount, converted by molar mass. Several values for one entry are separate records, joined by “and”; a condition that tells them apart may be missing. Identical values can stand only once. Entries after “also recorded” stand apart in the source; their conditions may differ. Like-named read-outs stand apart in the source and are kept apart here.

Experiments:
Humanspeichelamylase = target: T1, Humanspeichelamylase (Homo sapiens, UniProt P0DUB6); assay: Amylase activity assay in microtiter plates (dye-labelled starch substrate), commercial enzyme; format: biochemical; settings: for Hemmung der Enzymaktivität: result in words
T1 construct: purchased Sigma
T1 sequence (P0DUB6 16-511): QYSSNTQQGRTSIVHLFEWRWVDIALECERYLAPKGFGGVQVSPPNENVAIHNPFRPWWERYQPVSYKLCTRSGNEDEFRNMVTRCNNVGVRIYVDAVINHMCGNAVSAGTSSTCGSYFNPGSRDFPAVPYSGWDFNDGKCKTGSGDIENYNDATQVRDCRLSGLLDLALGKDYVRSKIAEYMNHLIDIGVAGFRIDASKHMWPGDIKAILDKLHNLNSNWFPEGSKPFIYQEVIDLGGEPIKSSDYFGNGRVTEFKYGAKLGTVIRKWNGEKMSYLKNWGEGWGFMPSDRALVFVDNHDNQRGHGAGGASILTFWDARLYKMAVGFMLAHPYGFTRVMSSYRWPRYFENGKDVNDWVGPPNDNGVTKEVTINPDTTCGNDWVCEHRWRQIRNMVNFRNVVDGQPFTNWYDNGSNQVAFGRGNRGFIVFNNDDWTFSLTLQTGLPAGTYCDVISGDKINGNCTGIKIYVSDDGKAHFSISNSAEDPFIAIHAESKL
Text: (§1) Diese Methode basiert auf folgendem Prinzip:

Amylase aus Bacillus sp. = assay: as above; format: biochemical; settings: for Hemmung der Enzymaktivität: result in words
Text: as §1

Fusarium graminearum [1] = assay: microbe, parasite or virus in culture; format: cell-based; settings: for Einfluss auf das Wachstum von Fusarium graminearum: Saccharose as sole C source, up to 14 days
Weizenpflanzen = settings: in vivo
[2] = tested on: Amylasen aus Kulturfiltrat (Strohextrakt) von in vitro angezogenem Fusarium graminearum; format: biochemical; settings: for Hemmung der Enzymaktivität: result in words
Fusarium graminearum [3] = format: in vivo
[4] = tested on: Blumeria graminis f. sp. tritici; assay: Powdery mildew rating on sprayed wheat plants (MOLL et al. 1996); format: in vivo; settings: 7 dpi; spray treatment at 3-leaf stage; AI-1 and AI-2 1 mg/ml, CI 100 µg/ml; Kontrolle 60
Text: Nach einer Sprühbehandlung der Weizenpflanzen im 3-Blatt-Stadium und anschließender Inokulation (nach Abtrocknen) mit Mehltau Blumeria graminis f. sp. tritici sind eindeutige Hemmeffekte zu erkennen (Figur 25-27). Eine Bonitur nach MOLL et al. (1996) ergab für den Amylase-Inhibitor AI-1 eine Befallsreduktion von 60% auf 7%, für den Amylase-Inhibitor AI-2 auf 1 % und für den Cellulase-Inhibitor CI auf 10% (Tabelle 3). Tab. 3: Bonitur des Mehltaubefalls (Blumeria graminis f. sp. tritici) nach MOLL et al. (1996) 7 dpi.

[5] = tested on: Amylasen von mit F. graminearum infizierten Pflanzen; format: biochemical, Fusarium graminearum; settings: for Hemmung der Enzymaktivität: result in words
[6] = target: Amylase aus Aspergillus oryzae (Aspergillus oryzae, UniProt P0C1B3); assay: Amylase activity assay in microtiter plates (dye-labelled starch substrate), commercial enzymes; format: biochemical; settings: both Aspergillus amylases (35 U/mg Fluka, 200 U/mg Sigma); result in words
Text: as §1

Fusarium graminearum [7] = format: in vivo; settings: for Fusarium Protein Equivalent (µg/g), Mittelwert: above-ground parts; for Fusarium Protein Equivalent (µg/g), Mittelwert / Fusarium Protein Equivalent (µg /g), Mean: 2 weeks after sowing; for Aussehen der behandelten, infizierten Pflanzen (Fotos): folded filter, very high infection pressure; for Reduktion des Befalls der Wurzeln (ELISA): roots of infected wheat seedlings on folded filter; for Fusarium Protein Equivalent (µg /g), Mean: roots
Erbsen = assay: Plant tolerance: germination of peas after imbibition in inhibitor solution; format: in vivo; settings: imbibition in a solution of 1 mg/ml; result in words
[8] = target: T2, Cellobiohydrolase I (CBH I) (Trichoderma reesei, UniProt P62694); settings: result in words; cited from earlier work
T2 sequence (P62694 18-513): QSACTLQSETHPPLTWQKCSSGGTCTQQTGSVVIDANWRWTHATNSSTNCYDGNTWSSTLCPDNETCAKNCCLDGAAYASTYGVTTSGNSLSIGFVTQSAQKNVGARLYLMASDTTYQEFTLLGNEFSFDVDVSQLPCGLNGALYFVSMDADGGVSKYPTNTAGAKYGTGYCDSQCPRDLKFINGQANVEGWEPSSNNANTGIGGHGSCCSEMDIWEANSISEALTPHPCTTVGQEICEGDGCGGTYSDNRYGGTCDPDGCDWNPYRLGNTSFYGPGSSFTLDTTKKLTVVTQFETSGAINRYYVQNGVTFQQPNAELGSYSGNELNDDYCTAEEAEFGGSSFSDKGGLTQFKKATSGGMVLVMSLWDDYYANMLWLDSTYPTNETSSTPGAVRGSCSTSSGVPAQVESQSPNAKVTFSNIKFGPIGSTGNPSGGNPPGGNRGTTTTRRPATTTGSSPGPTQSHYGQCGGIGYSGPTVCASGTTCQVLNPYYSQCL

Endoglukanase II (EG II) = target: T3, Endoglukanase II (EG II) (Trichoderma reesei, UniProt P07982); settings: result in words; cited from earlier work
T3 sequence (P07982 22-418): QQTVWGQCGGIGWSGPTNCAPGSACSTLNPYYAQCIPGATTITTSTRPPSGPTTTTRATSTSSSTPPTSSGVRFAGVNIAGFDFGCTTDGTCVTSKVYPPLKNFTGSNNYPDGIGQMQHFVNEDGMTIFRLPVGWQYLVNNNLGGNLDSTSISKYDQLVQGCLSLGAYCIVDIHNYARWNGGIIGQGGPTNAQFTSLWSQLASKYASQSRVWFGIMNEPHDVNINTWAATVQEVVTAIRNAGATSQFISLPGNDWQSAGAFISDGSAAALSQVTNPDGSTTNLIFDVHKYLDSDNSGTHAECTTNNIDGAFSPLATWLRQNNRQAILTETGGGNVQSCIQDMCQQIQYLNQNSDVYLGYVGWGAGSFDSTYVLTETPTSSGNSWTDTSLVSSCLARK

[9] = infected with F.g. + inhibitor, infected control 341,44
[10] = infected with F.g. + inhibitor, infected control 1261,2
[11] = Stärke as sole C source, 14 days

CC1OC(OC2C(CO)OC(OC3C(CO)OC(O)C(O)C3O)C(O)C2O)C(O)C(O)C1NC1C=C(CO)C(O)C(O)C1O (stereo not drawn) [AI-1, Acarbose]
IC100 (Humanspeichelamylase; Humanamylase (500 U/mg, Sigma), read-out: Konzentration, bei der die Amylase vollständig / total gehemmt wird): 250 µg/mL
Hemmung der Enzymaktivität (Amylase aus Bacillus sp.; 0,5 mg/ml): ebenfalls gehemmt, jedoch durch diese Konzentration nicht total ausschaltet
MIC (Fusarium graminearum [1]; Fusarium graminearum, 336 h, read-out: Konzentration, bei der das Wachstum total gehemmt wird): 30 µg/mL (≈ 46.5 µM)
inhibition of growth at 15 µg/mL (Fusarium graminearum [1]; Fusarium graminearum, read-out: Hemmung des Wachstums): ~50%
Einfluss auf das Wachstum von Fusarium graminearum (Fusarium graminearum [1]; result in words): keinen negativen Einfluss; also recorded: sogar gefördert
Faktor effektiver als der Cellulase-Inhibitor gegenüber Stärke als Substrat (Fusarium graminearum [1]; total inhibition, 30 µg/ml versus 100 µg/ml): 3
Hemmung von Keimung und Pflanzenwachstum (Weizenpflanzen): weder der Amylase-Inhibitor AI-1 noch der amylasehemmende Wirkung zeigende Cellulose-Inhibitor die Keimung und das Pflanzenwachstum hemmten
Konzentration, bei der die Amylasen total gehemmt wurden [2]: 0,06 mg/ml
Amylase-Aktivität reduziert bis auf ([2]; 5 µg/ml, remaining activity): 28%
Reduktion der Pilzmenge (ELISA) (Fusarium graminearum [3]; Versuch 1, 4 weeks, seed dip treatment): 66%
Hemmung des Pilzwachstums (ELISA) (Fusarium graminearum [3]; Versuch 1, 4 weeks, seed dip treatment, result in words): vollständige Hemmung
Hemmung des Pilzwachstums / Reduktion der Pilzmenge (ELISA) (Fusarium graminearum [3]; Versuch 2, 4 weeks, seed dip treatment): 60% and 85%
Blattfrischgewicht infizierter Pflanzen (Fusarium graminearum [3]; soil substrate, greenhouse, 4 weeks, AI-1 1 mg /ml seed treatment, result in words): hebt diese Frischgewichtsdepression auf; also recorded: gleiche Frischgewicht wie die nicht infizierte Kontrolle
Befall (%) [4]: 7%
Amylasen gehemmt bis auf ([5]; 0,5 mg/ml, not totally switched off): 69,2%
Hemmung der Enzymaktivität [5]: starke, wenn auch nicht vollständige Hemmung
Hemmung der Enzymaktivität [6]: nicht oder nur sehr schwach beeinflusst
Fusarium Protein Equivalent (µg/g), Mittelwert (Fusarium graminearum [7]; [9]): 25,2 µg/g
Fusarium Protein Equivalent (µg/g), Mittelwert (Fusarium graminearum [7]; not infected (K) + inhibitor): 2,2 µg/g
Aussehen der behandelten, infizierten Pflanzen (Fotos) (Fusarium graminearum [7]; result in words): fast normal aussehen
Effekt auf der Basis des Frischgewichtes (Fusarium graminearum [7]; infected wheat seedlings on folded filter, 2 weeks, result in words): starke befallreduzierende Effekt; also recorded: positive Effekt
Reduktion des Befalls der Wurzeln (ELISA) (Fusarium graminearum [7]; 2 weeks): 66% and 61%
Fusarium Protein Equivalent (µg /g), Mean (Fusarium graminearum [7]; [10]): 554,8 µg /g
Fusarium Protein Equivalent (µg /g), Mean (Fusarium graminearum [7]; not infected (K) + inhibitor): 6,3 µg /g

OCCN1C[C@H](O)[C@@H](O)[C@H](O)[C@H]1CO [AI-2, Miglitol]
Hemmung der Enzymaktivität (Humanspeichelamylase): weder die Humanamylase noch die verwendeten käuflichen Amylasen aus Bakterien bzw. Pilzen hemmt; also recorded: nicht zu hemmen vermochte
Hemmung der Enzymaktivität (Amylase aus Bacillus sp.): weder die Humanamylase noch die verwendeten käuflichen Amylasen aus Bakterien bzw. Pilzen hemmt; also recorded: nicht zu hemmen vermochte
Einfluss auf das Wachstum von Fusarium graminearum (Fusarium graminearum [1]; result in words): keinen Einfluss
Einfluss auf das Pilzwachstum (Fusarium graminearum [1]; Stärke as sole C source, result in words): keinen Einfluss
Einfluss auf das Wachstum des Pilzes in vitro (Fusarium graminearum [1]; result in words): keinerlei hemmenden Einfluss
Einfluss auf das ausgewachsene Blatt (Weizenpflanzen): keinen Einfluss auf das ausgewachsene Blatt
Hemmung der Keimung (Weizenpflanzen): vollständig
Hemmung der Keimung der Weizenpflanzen (Weizenpflanzen): so stark hemmte, dass sich Jungpflanzen nicht entwickeln konnten
Hemmung der Enzymaktivität [2]: konnte weder die im Handel erhältlichen Amylasen bzw. Cellulasen der verschiedenen Mikroorganismen noch die von Fusarium graminearum in vitro oder in der Pflanze gebildeten Amylasen inhibieren
Befall (%) [4]: 1%
Hemmung der Keimung (Erbsen): vollständig
Hemmung der Enzymaktivität [5]: wirkungslos; also recorded: keine Wirkung; also recorded: konnte weder die im Handel erhältlichen Amylasen bzw. Cellulasen der verschiedenen Mikroorganismen noch die von Fusarium graminearum in vitro oder in der Pflanze gebildeten Amylasen inhibieren
Hemmung der Enzymaktivität [6]: weder die Humanamylase noch die verwendeten käuflichen Amylasen aus Bakterien bzw. Pilzen hemmt; also recorded: nicht zu hemmen vermochte
Fusarium Protein Equivalent (µg /g), Mean (Fusarium graminearum [7]; [10]): 813,0 µg /g
Fusarium Protein Equivalent (µg /g), Mean (Fusarium graminearum [7]; not infected (K) + inhibitor): 7,6 µg /g

Na2PdCl6 · 4 H2O [CI]
Konzentration, bei der die Amylase vollständig / total gehemmt wird (Humanspeichelamylase; Humanamylase (500 U/mg, Sigma)): 25 µg/mL
Hemmung der Enzymaktivität (Humanspeichelamylase): bei höherer Konzentration hemmte
Konzentration, bei der die Amylase total gehemmt wird (Amylase aus Bacillus sp.; Bacillus-Amylase): 100 µg/mL
Hemmung der Enzymaktivität (Amylase aus Bacillus sp.): bei höherer Konzentration hemmte
Hemmung des Pilzwachstums (Fusarium graminearum [1]; Cellulose as C source, 12,5 µg/ml, 14 days, result in words): deutliche Wachstumsdepression
Wachstumsdepression (Fusarium graminearum [1]; Cellulose as C source, ab 50 bis 100 µg/mL, 14 days): 100%
Konzentration, bei der das Wachstum total gehemmt ist (Fusarium graminearum [1]; Cellulose as sole C source): 50 µg/mL
Wachstumsrate reduziert um (Fusarium graminearum [1]; Cellulose as sole C source, 12,5 µg/ml): ca. 50%
Einfluss auf das Wachstum von Fusarium graminearum (Fusarium graminearum [1]; result in words): nicht gehemmt
Einfluss auf das Wachstum (Fusarium graminearum [1]; Stärke as sole C source, 6,5-12,5 µg/ml, result in words): verifizierbare Wachstumsförderung
Konzentration, ab der das Wachstum partiell gehemmt wird (Fusarium graminearum [1]; [11]): ≥ 75 µg/mL
Konzentration, bei der das Wachstum total gehemmt wird (Fusarium graminearum [1]; [11]): ≥ 100 µg/mL
Konzentration, bei der das Wachstum total gehemmt wird (Fusarium graminearum [1]; Stärke as sole C source, 14 days, listed as Cellulase-Inhibitor): 100 µg/mL
Inhibition [8]: in starkem Maße zu inhibieren
Hemmung von Keimung und Pflanzenwachstum (Weizenpflanzen): weder der Amylase-Inhibitor AI-1 noch der amylasehemmende Wirkung zeigende Cellulose-Inhibitor die Keimung und das Pflanzenwachstum hemmten
negativer Effekt auf das Pflanzenwachstum (Weizenpflanzen): keinerlei negativen Effekt auf das Pflanzenwachstum
Hemmung der Enzymaktivität [2]: nicht bzw. nur unwesentlich hemmt
Hemmung der Enzymaktivität ([2]; listed as Cellulase-Inhibitor): bei höheren Konzentrationen auch die Amylasen des Fusarium-Kulturfiltrates hemmt; also recorded: unbeeinflusst blieben
Hemmung des Pilzwachstums (Fusarium graminearum [3]; soil substrate, greenhouse, 4 weeks, both trials, CI 100µg /ml seed treatment, result in words): nicht hemmt; also recorded: keinerlei Effekt
Befall (%) [4]: 10%
Hemmung der Enzymaktivität [5]: nicht bzw. nur unwesentlich hemmt
Hemmung der Enzymaktivität ([5]; listed as Cellulase-Inhibitor): unbeeinflusst blieben
Hemmung der Enzymaktivität [6]: unbeeinflusst blieben
Fusarium Protein Equivalent (µg/g), Mittelwert (Fusarium graminearum [7]; [9]): 66,34 µg/g
Fusarium Protein Equivalent (µg/g), Mittelwert (Fusarium graminearum [7]; not infected (K) + inhibitor): 0,04 µg/g
Aussehen der behandelten, infizierten Pflanzen (Fotos) (Fusarium graminearum [7]; result in words): grüner aus, sind aber im Wuchs doch deutlich reduziert
Reduktion des Befalls der Wurzeln (ELISA) (Fusarium graminearum [7]; 2 weeks): 51%
Fusarium Protein Equivalent (µg /g), Mean (Fusarium graminearum [7]; [10]): 618,9 µg /g
Fusarium Protein Equivalent (µg /g), Mean (Fusarium graminearum [7]; not infected (K) + inhibitor): 49,0 µg /g
Inhibition (Endoglukanase II (EG II)): in starkem Maße zu inhibieren
